Test results from patent EP1321467A2, “High affinity inhibitors for target validation and uses thereof” (Princeton University, priority 1999, dated 2000).
Read-outs that look alike come from different tables or passages of the source.

Tests used:
GST-XD4(V323A, I338A) [1] = target: T1, GST-XD4(V323A, I338A) (Rous sarcoma virus subgroup A, UniProt P00524, DEL77-225/I338A/V323A); format: biochemical; settings: RR-Src 1 mM, 37°C, pH 8.0
T1 construct: double alanine mutant of the v-Src catalytic domain, (the XD4 fragment) were made as glutathione S-transferase (GST) fusion proteins (GST-XD4); made in house; host or cells: E. coli (DH5a), pGEX-KT
Procedure: (§1) Kinetic constants were determined by analysis of Lineweaver-Burk plots of the rate data (64). […]

GST-XD4(V323A, I338A) [2] = format: biochemical
Procedure: as §1

GST-XD4(V323A, I338A) [3] = target: T1, GST-XD4(V323A, I338A); format: biochemical; settings: nucleotide saturated; read-out: KM for RR-Src
wild type protein kinase = assay: In vitro kinase reactions with radiolabeled nucleotide in murine lymphocyte lysates; format: biochemical; settings: 100 µM, 37°C, 10 min, autoradiogram
Procedure: For this it is preferably that no wild-type kinase, including ser/thr specific kinase (which carry out the bulk of cellular phosphorylation, as only 0.03% of all phosphoamino acids are tyrosine) (65), substantially accept the synthetic substrate. To establish that [γ-^32P]
These assays were performed in a manner similar to the procedure set forth in Example 2, with the exception of the use of radiolabeled [γ-^32P] […] Proteins were separate by 12.5% SDS-PAGE. The gel was soaked in 10% acetic acid, 10% isopropanol for 1 h. after which it was dried in a gel dryer and exposed to Biomax MS film (Kodak # 111-1681) for 1 h.
The results are shown in Figure 5(b), which is an autoradiogram showing the level of phosphorylation in hypotonically lysed murine lymphocytes with [γ-^32P] […] In principle, the ability to follow one protein kinase's activity in the presence of all other cellular kinase would allow for the identification of the direct kinase targets in a particular cell type by using membrane permeabilization (66) and a cell permeable form of A*TP to introduce [γ-^32P] A*TP into cells (67).

GST-XD4 [4] = assay: Kinetics for phosphate donor substrates; format: biochemical; settings: RR-Src 1 mM, 37°C, pH 8.0
Procedure: as §1

Cdc28·MBP-C1b2 [5] = target: T2, Cdc28·MBP-C1b2 (Saccharomyces cerevisiae, UniProt P00546); assay: ATP kinetics, Histone H1 phosphorylation; format: biochemical; settings: read-out: ATP Kinetics Km; Eadie-Hofstee
T2 construct: His6 (C); made in house; host or cells: Sf9 insect cells, baculovirus, co-infected with Cak1-HA3 (Cdc28-His6); bacteria (MBP-Clb2)
T2 sequence (P00546 whole entry): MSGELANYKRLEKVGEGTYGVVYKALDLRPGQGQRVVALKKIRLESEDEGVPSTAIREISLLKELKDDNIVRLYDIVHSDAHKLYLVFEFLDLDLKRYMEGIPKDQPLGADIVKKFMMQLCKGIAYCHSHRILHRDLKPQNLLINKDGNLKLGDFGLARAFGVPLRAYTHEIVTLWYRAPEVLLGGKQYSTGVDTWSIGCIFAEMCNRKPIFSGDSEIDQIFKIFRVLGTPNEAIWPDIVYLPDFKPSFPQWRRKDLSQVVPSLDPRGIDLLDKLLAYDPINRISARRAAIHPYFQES
T2 sequence (P24869 whole entry partner): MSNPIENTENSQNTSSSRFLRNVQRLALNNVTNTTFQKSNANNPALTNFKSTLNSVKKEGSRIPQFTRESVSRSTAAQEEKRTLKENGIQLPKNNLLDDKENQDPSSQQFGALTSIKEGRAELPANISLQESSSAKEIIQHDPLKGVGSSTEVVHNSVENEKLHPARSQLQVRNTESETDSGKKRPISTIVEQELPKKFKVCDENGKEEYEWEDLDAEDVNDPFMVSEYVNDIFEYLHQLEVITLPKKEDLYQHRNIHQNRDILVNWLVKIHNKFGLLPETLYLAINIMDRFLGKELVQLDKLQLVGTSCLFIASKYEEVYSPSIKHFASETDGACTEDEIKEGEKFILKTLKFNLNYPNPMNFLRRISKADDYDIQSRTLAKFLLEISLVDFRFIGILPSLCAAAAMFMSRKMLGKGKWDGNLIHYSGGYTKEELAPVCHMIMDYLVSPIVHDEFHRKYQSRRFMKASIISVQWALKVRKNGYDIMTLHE

GST-XD4 [6] = settings: read-out: KM for RR-Src; nucleotide saturated
Cdc28-as1·MBP-C1b2 [7] = target: T3, Cdc28-as1·MBP-C1b2 (Saccharomyces cerevisiae, UniProt P00546, F88G); settings: Eadie-Hofstee
T3 sequence (P00546 whole entry F88G): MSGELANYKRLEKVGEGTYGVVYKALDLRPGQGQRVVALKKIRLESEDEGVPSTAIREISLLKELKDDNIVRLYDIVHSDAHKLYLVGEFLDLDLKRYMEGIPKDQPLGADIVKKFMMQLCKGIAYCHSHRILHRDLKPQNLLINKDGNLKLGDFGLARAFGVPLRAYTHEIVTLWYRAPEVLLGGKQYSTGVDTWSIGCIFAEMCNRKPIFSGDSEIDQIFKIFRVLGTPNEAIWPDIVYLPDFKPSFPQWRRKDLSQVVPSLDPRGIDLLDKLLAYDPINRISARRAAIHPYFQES
T3 sequence (P24869 whole entry, further chain): as the sequence (P24869 whole entry partner) above

I338G v-Src = target: T4, I338G v-Src (Rous sarcoma virus subgroup A, UniProt P00524, DEL77-225/I338G); assay: biochemical; format: biochemical
T4 construct: catalytic domain of the target kinase, I338G v-Src, which was expressed in bacteria and purified as a glutathione-S-transferase (GST) fusion protein; made in house; host or cells: E. coli DH5a, pGEX-KT

WT v-Src = target: T5, WT v-Src (Rous sarcoma virus subgroup A, UniProt P00524, DEL77-225); assay: biochemical; format: biochemical
T5 construct: glutathione-S-transferase fusion proteins of wild type v-Src catalytic domain, I338G v-Src SH1, and WT Fyn into the pGEX-KT plasmid; GST (N); made in house; host or cells: E. coli DH5a, pGEX-KT

WT Fyn = target: T6, WT Fyn (Homo sapiens, UniProt P06241); assay: In vitro kinase inhibition assay; format: biochemical; settings: Table 3
T6 construct: GST (N); made in house; host or cells: E. coli DH5a, pGEX-KT
T6 sequence (P06241 1-534 isoform P06241-2): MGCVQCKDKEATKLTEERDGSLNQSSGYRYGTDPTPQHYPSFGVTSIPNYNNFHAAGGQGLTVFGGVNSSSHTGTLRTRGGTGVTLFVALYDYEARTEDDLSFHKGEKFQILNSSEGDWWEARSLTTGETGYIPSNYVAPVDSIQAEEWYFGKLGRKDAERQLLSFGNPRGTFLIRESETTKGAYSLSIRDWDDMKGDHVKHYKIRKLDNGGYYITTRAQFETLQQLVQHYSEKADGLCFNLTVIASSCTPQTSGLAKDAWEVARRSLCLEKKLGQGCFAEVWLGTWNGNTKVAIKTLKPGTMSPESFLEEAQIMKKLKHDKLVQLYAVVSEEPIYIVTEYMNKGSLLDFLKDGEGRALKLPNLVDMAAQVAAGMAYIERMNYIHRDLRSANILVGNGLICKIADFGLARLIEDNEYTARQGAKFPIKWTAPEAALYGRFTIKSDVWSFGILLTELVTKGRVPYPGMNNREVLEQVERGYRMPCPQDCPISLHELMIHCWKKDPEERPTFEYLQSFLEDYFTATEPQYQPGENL

Cdc28·MBP-C1b2 [8] = target: T2, Cdc28·MBP-C1b2; assay: 1-NM-PP1 IC50, Histone H1 phosphorylation; format: biochemical
Procedure: (§2) Purification of Cdc28-His6, Cdc28-as1-His6, MBP-Clb2: Lysate was prepared from insect cells co-infected with baculoviruses encoding Cdc28-His6 or Cdc28-as1-His6 and Cak1-HA3 (151). Cdc28-His6 and Cdc28-as1-His6 were purified by metal affinity chromatography as described (152), followed by […]. MBP-Clb2 was purified from lysates of bacteria expressing MBP-Clb2 (a gift of R. Deshaies) on an amylose column (NEBL), followed by anion-exchange chromatography (Pharmacia Q Sepharose Fast Flow).
(§3) Phosphate incorporation was determined at each inhibitor concentration by scintillation counting.

cdc28-as1 strain = assay: Yeast growth; format: cell-based, Saccharomyces cerevisiae; settings: Saccharomyces cerevisiae, read-out: inhibitor concentration at which growth was inhibited 50%
wild-type cells [9] = assay: Yeast growth; format: cell-based, Saccharomyces cerevisiae; settings: 50,000 nM
wild-type cells [10] = assay: Genome-wide transcription, oligonucleotide microarray; format: cell-based, Saccharomyces cerevisiae; settings: 500 nM, 30 minutes
Procedure: Changes were deemed significant if they were greater than or equal to 2-fold or if the transcript changed present/absent status (as indicated by Affymetrix software) in the following comparisons: for non-specific drug effects: CDC28 + 1 -NM-PP1 vs CDC28: for cdc28-as1 effects: cdc28-as1 vs. CDC28.
Next, the effects of the inhibitor 1-NM-PP1 on cell growth and morphology were analyzed.

cdc28-as1 cells [11] = assay: as above; format: cell-based, Saccharomyces cerevisiae; settings: 500 nM, two hours, asynchronous cells
cdc28-as1 cells [12] = assay: Cell cycle analysis, DNA content and morphology; format: cell-based, Saccharomyces cerevisiae; settings: 500 nM, cells arrested in late mitosis with cdc15-2
Procedure: DNA flow cytometry: Approximately 1x10^7 cells for each sample were fixed in 70% ethanol, resuspended in 50 mM Tris-HCl pH 8.0, briefly sonicated, digested with 2mg/ml RNase for 2 hours at 37°C, and resuspended in 0.2 ml protease solution (5 mg/ml pepsin. 0.5% concentrated HC1) and digested for 45 minutes at 37°C. DNA was stained with 1µM Sytox Green (Molecular Probes) in 50 mM Tris-HCl pH 7.5 and 20,000 cells from each sample were scanned with a FACScan FACS machine (Becton-Dickinson).
Thus, it appears possible to titrate the level of Cdc28-as1 activity in vivo, allowing the identification of cell cycle events that are differentially sensitive to decreases in the catalytic activity of Cdc28.
[…], initiation of budding and DNA synthesis were delayed about 30 to 60 minutes, while accumulation of the mitotic cyclin C1b2 was delayed 60 to 90 minutes. Cells went on to arrest with moderate C1b2 levels, highly hyperpolarized buds, and a G2/M DNA content, much like the arrest observed in asynchronous cells. […] Thus, cells treated with low concentrations of the inhibitor are slightly delayed during progression through early stages of the cell cycle, but eventually arrest due to a failure to assemble a mitotic spindle and enter mitosis.

Cdc28-as1·MBP-C1b2 [13] = target: T3, Cdc28-as1·MBP-C1b2; assay: 1-NM-PP1 IC50, Histone H1 phosphorylation; format: biochemical; parameters: His6 (C); made in house; host or cells: Sf9 insect cells, baculovirus, co-infected with Cak1-HA3 (Cdc28-as1-His6); bacteria (MBP-Clb2)
Procedure: as §2, §3

I338A v-Src = I338A v-Src (Rous sarcoma virus subgroup A, UniProt P00524, I338A); assay: biochemical
fus3-as1 strain = assay: Yeast mating assay for Fus3 function; format: cell-based, Saccharomyces cerevisiae
[14] = system: wild-type Fus3 expressing cells; assay: Yeast mating assay for Fus3 function; format: cell-based, Saccharomyces cerevisiae; settings: all concentrations up to 50 µM
[15] = system: S. cerevisiae expressing either wild-type Fus3, Fus3-asl, or no Fus3; assay: Non-selective cytotoxicity control, plating of mating cultures on YPD; settings: any of the three strains
[16] = 1-NM-PP1 IC50 @ 10 µM ATP, 10 µM ATP
[17] = 1-NM-PP1 IC50 @ 1 mM ATP, 1 mM ATP

O=P(O)(O)OP(=O)(O)OP(=O)(O)OC[C@H]1O[C@@H](n2cnc3c(NC4CCCC4)ncnc32)[C@H](O)[C@@H]1O [ATP analog 8, N^6(cyclopentyl)ATP]
Km (GST-XD4(V323A, I338A) [1]): 15 ± 3 µM
kcat/KM lower than the kcat/KM of the wild-type kinase with ATP (GST-XD4(V323A, I338A) [2]; mutant with analog versus wild type with ATP): 50 fold
Km (GST-XD4(V323A, I338A) [3]): 2100 ± 900 µM
radiolabeled phosphoproteins in the cell lysate (wild type protein kinase): no radiolabeled phosphoproteins

Nc1ncnc2c1ncn2[C@@H]1O[C@H](COP(=O)(O)OP(=O)(O)OP(=O)(O)O)[C@@H](O)[C@H]1O [ATP, adenosine triphosphate]
Km (GST-XD4 [4]): 12 ± 3 µM
Km (GST-XD4(V323A, I338A) [1]): 150 ± 20 µM
kcat (GST-XD4(V323A, I338A) [1]): 0.013 ± 0.0033 s⁻¹
KM of the mutant higher than the KM of GST-XD4 (GST-XD4(V323A, I338A) [2]; mutant versus GST-XD4): more than 10 fold
Km (Cdc28·MBP-C1b2 [5]): 35 µM
Km (GST-XD4 [6]): 2600 ± 900 µM
ATP Kinetics kcat (Cdc28-as1·MBP-C1b2 [7]): 0.355 s⁻¹
Km (Cdc28-as1·MBP-C1b2 [7]; read-out: ATP Kinetics Km): 322 µM

CC(C)(C)n1nc(Cc2cccc3ccccc23)c2c(N)ncnc21 [Compound 6h, 4-amino-1-(tert-butyl)-3-(1'-naphthylmethyl)pyrazolo[3,4-d]pyrimidine]
IC50 (I338G v-Src): 4.2 nM
IC50 (WT v-Src): 28000 nM
IC50 (WT Fyn): 1100 nM
IC50 (Cdc28·MBP-C1b2 [8]; 1 mM ATP, text b306, read-out: IC50): 44000 nM
IC50 (Cdc28·MBP-C1b2 [8]; [16]): 22000 nM
IC50 (Cdc28·MBP-C1b2 [8]; [17]): 44000 nM
IC50 (cdc28-as1 strain): 50 to 100 nM
increase of doubling times (wild-type cells [9]): about 2 fold
genes with transcription changed greater than two-fold (wild-type cells [10]): 6 genes
genes with […] or greater changes in transcription (cdc28-as1 cells [11]): 104 genes
time to cyclin destruction and rebudding (cdc28-as1 cells [12]): < 60 min
Cdc28-as1 more sensitive than wild-type Cdc28 (Cdc28-as1·MBP-C1b2 [13]; 1 mM ATP): about 15,000 fold
IC50 (Cdc28-as1·MBP-C1b2 [13]; [16]): 2 nM
IC50 (Cdc28-as1·MBP-C1b2 [13]; [17]): 2.9 nM
IC50 (Cdc28-as1·MBP-C1b2 [13]; IC50, 1 mM ATP, text b306): ~3 nM

CC(C)(C)n1nc(-c2cccc3ccccc23)c2c(N)ncnc21 [Compound 10]
IC50 (I338A v-Src): 1 nM
decrease from equivalent control cells (fus3-as1 strain; 500 nM): 44 fold
diploid colonies (fus3-as1 strain; 500 nM): 1.7x10^3 cfu/ml
amount of diploids formed (fus3-as1 strain; 50 µM): indistinguishable from a fus3Δ strain
diploid colonies [14]: 0.6-1.1 x 10^5 cfu/ml
cfu/mL on YPD plates [15]: No significant decrease in cfu/mL on YPD plates
